The values below are quoted from earlier work in publication PMC12298827, “Subchronic Toxicities of Four Per- and Polyfluoroalkyl Substances (PFASs) by Oral Exposure in Sprague–Dawley Rats” (Toxics, 2025).

Molecules are shown by their SMILES.

The data set relates to male and female rats. The note with it: cited from earlier work.

On to `N.O=C(O)C(F)(F)C(F)(F)C(F)(F)F` [ammonium perfluorobutyrate], for which, where the note is “28- and 90-day oral gavage ref 16”, the “Effect on absolute and relative liver weights” value is “significant increases in the absolute and relative liver weights only in male rats”.
On to `O=S(=O)(O)C(F)(F)C(F)(F)C(F)(F)C(F)(F)F` [perfluorobutane sulfonate], for which the “Effect on liver weights or bodyweights” value (doses of up to 600 mg/kg-day, 90-day oral gavage, male or female rats ref 21) was “did not affect the liver weights or bodyweights”.
